Laboratory results as given in patent US5384417A, “Heptitols” (priority 1994, dated 1995).
Where two headings read alike, the source gives them in different places.

What was measured:
Type in all cases: biochemical
[1] = system: α-Glucosidase; test: inhibition of human liver α-glucosidase; settings: 1 mM inhibitor
Method: (§1) Human liver glycosidases were assayed in the absence and presence [1 mM] of each of the potential inhibitors, using the appropriate buffered 4-methylumbelliferyl glycosides as substrates, as previously described.^17 See Table I, below.

[2] = biological target: T1, Lysosomal α-Mannosidase (Homo sapiens, UniProt O00754); test: inhibition of human liver lysosomal α-mannosidase; settings: for inhibition at 1000 µM: 1 mM inhibitor, read-out: % Inhibition of Glycosidase Activity, α-Mannosidase Lysosomal
T1 construct: Human liver glycosidases were assayed; from tissue; host or cells: human liver
T1 sequence (O00754 50-1011): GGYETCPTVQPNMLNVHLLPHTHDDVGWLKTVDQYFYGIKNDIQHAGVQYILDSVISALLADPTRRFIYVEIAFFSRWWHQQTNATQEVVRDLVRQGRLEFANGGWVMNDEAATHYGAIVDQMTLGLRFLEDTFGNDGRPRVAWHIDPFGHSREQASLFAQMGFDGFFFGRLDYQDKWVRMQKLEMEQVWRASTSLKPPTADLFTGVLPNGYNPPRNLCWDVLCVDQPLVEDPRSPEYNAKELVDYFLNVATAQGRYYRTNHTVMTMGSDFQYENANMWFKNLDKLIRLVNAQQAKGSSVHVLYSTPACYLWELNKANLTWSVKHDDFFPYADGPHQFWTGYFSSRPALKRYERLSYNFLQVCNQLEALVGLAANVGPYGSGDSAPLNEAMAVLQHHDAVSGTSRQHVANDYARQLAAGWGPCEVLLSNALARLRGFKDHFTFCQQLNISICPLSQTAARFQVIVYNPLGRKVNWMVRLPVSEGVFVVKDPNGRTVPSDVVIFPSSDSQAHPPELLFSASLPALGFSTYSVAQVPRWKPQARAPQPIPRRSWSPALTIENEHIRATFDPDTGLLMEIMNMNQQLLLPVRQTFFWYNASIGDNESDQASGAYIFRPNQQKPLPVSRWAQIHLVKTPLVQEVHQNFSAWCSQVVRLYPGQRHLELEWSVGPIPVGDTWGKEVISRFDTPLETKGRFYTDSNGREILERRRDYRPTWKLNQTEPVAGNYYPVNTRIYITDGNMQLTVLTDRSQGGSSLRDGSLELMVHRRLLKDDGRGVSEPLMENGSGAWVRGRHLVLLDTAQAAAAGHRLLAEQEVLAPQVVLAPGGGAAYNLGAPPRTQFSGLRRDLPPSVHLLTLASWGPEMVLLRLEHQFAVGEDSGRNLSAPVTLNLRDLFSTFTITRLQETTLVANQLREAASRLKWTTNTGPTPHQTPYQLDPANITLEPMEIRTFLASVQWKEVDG
Method: as §1

[3] = biological target: T2, β-Xylosidase (Homo sapiens, UniProt Q9H227); test: inhibition of human liver β-xylosidase; settings: 1 mM inhibitor; read-out: % Inhibition of Glycosidase Activity, β-Xylosidase
T2 construct: Human liver glycosidases were assayed; from tissue; host or cells: human liver
T2 sequence (Q9H227 1-469): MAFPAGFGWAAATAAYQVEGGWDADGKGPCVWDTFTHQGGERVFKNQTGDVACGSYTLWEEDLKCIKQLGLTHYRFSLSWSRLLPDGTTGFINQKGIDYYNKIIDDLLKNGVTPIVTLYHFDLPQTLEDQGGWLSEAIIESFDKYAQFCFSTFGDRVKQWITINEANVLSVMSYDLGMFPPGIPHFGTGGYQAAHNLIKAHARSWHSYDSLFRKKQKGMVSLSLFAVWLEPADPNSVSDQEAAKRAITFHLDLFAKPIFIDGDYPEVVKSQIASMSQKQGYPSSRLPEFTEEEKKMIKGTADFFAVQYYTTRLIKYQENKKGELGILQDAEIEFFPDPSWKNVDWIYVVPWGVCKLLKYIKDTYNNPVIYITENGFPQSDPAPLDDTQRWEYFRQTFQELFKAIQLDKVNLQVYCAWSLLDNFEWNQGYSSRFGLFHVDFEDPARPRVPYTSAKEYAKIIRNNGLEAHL
Method: as §1

[4] = system: β-Glucosidase; test: inhibition of human liver β-glucosidase; settings: 1 mM inhibitor
Method: as §1

[5] = biological target: T3, β-Mannosidase (Homo sapiens, UniProt O00462); test: inhibition of human liver β-mannosidase; settings: read-out: % Inhibition of Glycosidase Activity, β-Mannosidase
T3 construct: Human liver glycosidases were assayed; from tissue; host or cells: human liver
T3 sequence (O00462 18-879): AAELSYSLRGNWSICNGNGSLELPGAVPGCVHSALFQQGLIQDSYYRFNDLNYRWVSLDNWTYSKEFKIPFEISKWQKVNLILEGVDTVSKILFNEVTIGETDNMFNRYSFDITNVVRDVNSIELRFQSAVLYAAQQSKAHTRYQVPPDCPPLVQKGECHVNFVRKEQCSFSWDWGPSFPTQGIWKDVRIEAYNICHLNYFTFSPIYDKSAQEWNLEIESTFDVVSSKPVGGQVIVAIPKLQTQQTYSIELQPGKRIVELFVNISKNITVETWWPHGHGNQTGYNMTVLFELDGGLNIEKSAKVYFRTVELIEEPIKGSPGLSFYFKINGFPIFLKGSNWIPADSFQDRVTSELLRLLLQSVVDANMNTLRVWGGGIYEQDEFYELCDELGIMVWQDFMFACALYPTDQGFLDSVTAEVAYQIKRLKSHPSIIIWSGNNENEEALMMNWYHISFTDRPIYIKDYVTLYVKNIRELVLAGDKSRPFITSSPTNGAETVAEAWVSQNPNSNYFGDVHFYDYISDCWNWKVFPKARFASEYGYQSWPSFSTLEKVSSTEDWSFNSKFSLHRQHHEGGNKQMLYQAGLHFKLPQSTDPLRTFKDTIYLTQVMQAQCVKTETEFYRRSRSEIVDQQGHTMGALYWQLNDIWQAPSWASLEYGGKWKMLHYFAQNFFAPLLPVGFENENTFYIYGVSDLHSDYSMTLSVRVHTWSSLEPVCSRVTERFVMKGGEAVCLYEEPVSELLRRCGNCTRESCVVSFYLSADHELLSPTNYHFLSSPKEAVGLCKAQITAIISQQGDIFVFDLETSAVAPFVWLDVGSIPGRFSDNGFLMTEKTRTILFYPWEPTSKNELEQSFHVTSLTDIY
Method: as §1

SMILES	% Inhibition of Glycosidase Activity, α-Glucosidase [1]	inhibition at 1000 µM [2]	inhibition of lysosomal α-mannosidase (in words) ([2]; compared with DIM (3))	inhibition at 1000 µM [3]	% Inhibition of Glycosidase Activity, β-Glucosidase [4]	inhibition at 1000 µM ([5]; 1 mM inhibitor)	inhibition at 1000 µM [5]
OC[C@@H](O)[C@H]1N[C@H](CO)[C@@H](O)[C@H]1O [αHomoDIM (4), 2,5-dideoxy-2,5-imino-D-glycero-D-talo-heptitol]	12%	71%	decreases the inhibition of the lysosomal and neutral enzymes	21%	23%	18%	–
OC[C@@H](O)[C@H]1NC[C@@H](O)[C@H]1O [DIM (3)]	0%	97%	–	45%	16%	0%	–
OC[C@H]1NC[C@@H](O)[C@@H](O)[C@@H]1O [DMJ (1), deoxymannojirimycin]	21%	58%	–	3%	0%	–	0%
OC[C@H]1N[C@H](CO)[C@@H](O)C(O)[C@@H]1O (some centres unmarked) [αHomoDMJ (2)]	4%	49%	–	0%	0%	0%	–
NC[C@H]1O[C@H]([C@H](O)CO)[C@H](O)[C@@H]1O [Manhepamine (5), 1-amino-2,5-anhydro-1-deoxy-D-glycero-D-talo-heptitol]	0%	2%	–	6%	14%	3%	–
